Laboratory results taken from US20240373849A1, “INSECT NEUROPEPTIDE ANALOGUES” (THE UNIVERSITY COURT OF THE UNIVERSITY OF GLASGOW, priority 2020, published 2024).
Values joined by “and” are separate entries in the source; they are usually repeats but may differ in a detail not shown here. Equal values may be shown once. Square brackets hold non-standard residues; d marks the D form. * marks the point of attachment. Palmitoyl = CCCCCCCCCCCCCCCC(=O)*; NMeV = CN[C@H](C(=O)O)C(C)C; NMeA = CN[C@@H](C)C(=O)O; Aib = CC(C)(N)C(=O)O

Tests used:
[1] = tested on: D. suzukii larvae; assay: Drosophila suzukii larval feeding (Example 9; dose response); type: in vivo; settings: for % Lethality ± SEM: Table 6, 10^−5 M, 48 hr and/or 72 h exposure (FIG. 7: AH270/PEGAH270 120 h)
Description: Dose response experiments were carried out for AH382, AH383, AH188, data shown for AH382 (a), AH383 (b), AH188 (c, 48 hours). Data are mean % lethality ±SEM for concentrations between 10^−4 M and 10^−7 M (a) AH382, (b) AH383 72 hours treatment; and between 10^−5 M and 10^−9 M (AH188, 3c), 48 hours treatment. The LD50 for AH382, AH383 and AH188 is 10^−6 M.
Further larval feeding assays with D. suzukii larvae were conducted as explained above in example 7. A total of 88 peptides were tested against D. suzukii larvae in 96 well plates at 10^−5 M in a final volume of 200 μl of 0.8% agarose containing 0.09% m-Cresol purple pH marker dye (Sigma) and 5% sucrose (Sigma). Controls contained dH2O (18% lethality) or native Capa-2 peptide (38% lethality) as a ‘sham’ treatment. Each peptide was assayed with a minimum of 7 to maximum 9 late L2/early L3 larvae per well, minimum n=8 wells per peptide concentration (minimum 56 larvae) and a minimum n=12 control wells (minimum 84 larvae) per plate. Larvae were assayed for lethality after 48 hr and/or 72 h exposure at 21° C. using a binocular stereomicroscope and findings recorded. Candidate peptides were also tested between 10^-4 and 10^-7 M (dose response curve).
Candidate peptides for D. suzukii with 70%-90% lethality are indicated below, in Table 6.

[2] = tested on: M. persicae; assay: Feeding of aphids with peptides in artificial diet (Example 1); type: in vivo, Myzus persicae
Description: A standard artificial diet for M. persicae was produced as described in Van Emden (2009) and provided the basal diet to which peptides were added for screening purposes. Peptides were diluted individually in the artificial diet to a pre-determined concentration.
Feeding apparatus were constructed using a set-up developed by Sadeghi et al (2009). For this, a piece of Parafilm was stretched over a Plexiglas ring (h=4 cm, Ø=3 cm) and 100 μl of the artificial diet containing the desired neuropeptide analogue was pipette onto the Parafilm membrane. A second piece of Parafilm, stretched to 4 times the original thickness, was stretched over the original layer, sandwiching the artificial diet between two layers of Parafilm. A strip of Parafilm was wrapped around the circumference of the Plexiglas ring, sealing in the diet. A plastic ring (h=1.2 cm, Ø=3.4 cm) was subsequently placed over the Parafilm layer, creating a walled chamber in which to house test aphids in contact with the Parafilm layer containing the artificial diet. Finally, a small Petri dish (h=1 cm, Ø=3.6 cm), modified for ventilation with net cloth, was placed on top of each feeding apparatus to prevent aphid escape.
To obtain aphids for use in experiments, reproducing anholocyclic adults were placed on individual excised leaves of Chinese cabbage at densities of 5 adults per leaf and allowed to reproduce for 24 h. The stem of each excised leaf was held within a 0.5 mL Eppendorf tube containing water via a punctured hole in the Eppendorf lid, and placed individually within a microcage (L=4 cm, Ø=9.5 cm). Following 24h, adults were removed and resultant first instar nymphs (<1 day old and synchronised in age to within 24h) retained. Nymphs were allowed to develop on the Chinese cabbage for 5 days. On day 5, (3rd instar) nymphs were transferred onto the artificial diet containing a neuropeptide analogue at densities of 1 per feeding chamber and monitored daily until death. Aphids were transferred to fresh artificial diet (containing neuropeptide analogue or water control) every 5 days.
The water control group was used to determine baseline lethality. Results for neuropeptide analogues were calculated as % lethality in the remaining population after adjustment for the baseline.

[3] = tested on: M. persicae; assay: Feeding of aphids with peptides in artificial diet (Example 2; peptide screening, honeydew); type: in vivo, Myzus persicae; settings: for M. persicae (% Lethality): Peptide screening, Table 5; for mean lethality / lethality observed in one sample of 30 insects: M. persicae feeding, 10^−5 M, 120 hours; for lethality observed in one sample of 30 insects: single sample
Excerpt: (§1) First to Fourth generations of peptides were produced with varying structures and tested for CAPA receptor agonist activity, and screened for lethality in vivo against D. suzukii and M. persicae as per methods in example 2 and example 8. The top performing peptides were selected and gave rise to the list of CAPA1 and CAPA2 peptides provided above in Table 1 which were then further tested in the following applied examples.
The aphid feeding protocol was devised according to Sadeghi et al (2009) as explained in example 1. Feeding discs were designed and manufactured as above. A standard sucrose-based artificial diet for M. persicae (30 aphids per chamber, 3 chambers per experiment unless otherwise stated) was produced as described in example 1 (Sadeghi et al, J. Insect Science, 2009) and provided the basal diet to which peptides were added for screening purposes. Peptides were diluted individually in the artificial diet to 10^−5 M. Lethality was scored after up to 120 hours (IRAC guidelines for aphid testing).
Membrane discs were also included to collect ‘honeydew’ secreted by feeding aphids and stained with ninhydrin to observe feeding patterns.
Comparison of purple stain in controls to treated aphids, show there is very little colour on many membranes where peptides were added.
Capa peptides cause mortality in M. persicae via feeding: At 120 hours, AH383 and AH387 peptides induce ˜60% mean (and median) lethality. Although mean lethality is lower with AH270/PEGAH270 (40%), 100% lethality is observed in one sample of 30 insects (AH270); and 90% in at least one sample of each of AH383, AH387 and PEGAH270 (FIG. 3). Note that PEGAH270 is a pegylated form of peptide AH270.

[4] = tested on: Myzus persicae aphids; assay: Topical application by spraying, Potter Spray Tower (Example 3); type: in vivo; settings: 48 hours post spray
Description: Aphids were exposed to test peptides in the absence of additional external stress conditions.
Brassica rapa (Chinese cabbage; Wong Bok) were infested with 30 adult Myzus persicae aphids per plant. Aphids were left at least 2 hours to settle and begin feeding from the host plant.
Potter Spray Tower (Burkard Manufacturing) was ‘primed’ by spraying 1000 μl of liquid coating the inside of the tower. Vehicle spray only (Croda ATPlus UEP 100 LQ-(CQ) 0.1% v/v) was used as a control.
Spray volumes for all solutions were 3000 μl. […] After spraying was completed the plant was allowed to rest on the spray platform for 30 seconds to allow settling of the sprayed chemical.
Post peptide application, each condition was placed into its own individual Bugdorm (Watkins and Doncaster, 44545), to prevent repulsed or displaced aphids moving from one condition to another. Numbers of alive and dead aphids on the plant were counted 48 hours post spray, and the presence of any fresh nymphs noted. Plants were watered prior to spraying but not afterwards to eliminate the possibility of drowning any aphids present or washing off the sprayed liquid.
The vehicle control group was used to determine baseline lethality. Results for neuropeptide analogues were calculated as % lethality in the remaining population after adjustment for the baseline.

[5] = tested on: Drosophila suzukii larvae; assay: Drosophila suzukii larval feeding (Example 8; peptide screening); type: in vivo; design: key to D. suzukii (Sig Diff Grp): A indicates a significant difference in survival compared with control (blank).; B indicates a significant difference in survival compared with scrambled capa1.; C indicates a significant difference in survival compared with scrambled capa2; settings: for Feeding D. suzukii, % lethality in population after adjustment for baseline: 10^−5 M, 48 hr exposure
Description: as §1
Peptides were tested at concentrations ranging from [10^−4 M] to [10^−7 M] in a final volume of 200 μl of 0.8% agarose containing 0.09% m-Cresol purple pH marker dye (Sigma) and 5% sucrose (Sigma).
Agarose was melted in dH2O, before addition of sucrose and dye. The agarose/dye solution was then allowed to cool to 60° C. 96 well plates (flat-bottomed 3596 TC-plates; Corning) containing 20 μl volumes of neuropeptide per well were prepared, and 180 μl agarose/dye solution dispensed into each well via a Distriman repetitive micro-pipettor (Gilson). Controls contained 20 μl dH2O as a ‘sham’ treatment with 180 μl of the 0.8% agarose/dye solution. Plates were agitated at 800 rpm, to ensure mixing, at 60° C. (Eppendorf Thermomixer C). Plates were then allowed to cool, and agarose/dye solution solidify, prior to use.
Each peptide was assayed with a minimum of 7 to maximum 9 late L2/early L3 Spotted wing Drosophila, Drosophila suzukii, (feeding) larvae per well, minimum n=8 wells per peptide concentration and a minimum n=12 control wells per plate. The selected larvae were first washed 2× in ice cold Drosophila Schneider's liquid medium (ThermoFisher) before insertion into wells to remove extraneous food. After complete insertion of all larvae the plates were covered with breathable sealing membrane for multi-well plates (Sigma).
Larvae were assayed for lethality after 48 hr exposure at 21° C. and findings recorded. During examination the assay plate was kept on ice, to reduce larval locomotor activity (wandering), and larvae in each well were examined using a binocular stereomicroscope (Zeiss).
The water control group was used to determine baseline lethality. Results for neuropeptide analogues were calculated as % lethality in the remaining population after adjustment for the baseline. Results are shown in Tables 7 and 8 below, and in FIG. 1.

[6] = tested on: bumblebees (Bombus terrestris); assay: Bumblebee acute oral toxicity test; type: in vivo
Description: Oral toxicity against bumblebees (Bombus terrestris) was determined as previously described:
OECD (2017), Test No. 247: Bumblebee, Acute Oral Toxicity Test, OECD Guidelines for the Testing of Chemicals, Section 2, OECD Publishing, Paris, https://doi.org/10.1787/9789264284128-en.
Example data are provided for peptides, AH56, AH257, AH259 in Tables 4, 5 below. […]
Data were acquired for: feeding behaviour—weight of liquid consumed pre- and post-treatment; lethality (days).
There was no negative impact on feeding behaviour from capa peptides. Acute bumblebee toxicity was also assessed for other peptide candidates including: AH270, PEG270. Overall, capa peptides are bee safe.

[7] = Table 11, individual bees, peptide 1 × 10 − 5M or Spirotetramat 25 uM, listed as AHPEG270

H-ASGLVAFPRV-NH2 [Capa-2, reference compound]
lethality ([1]; control ('sham') treatment, not baseline adjusted): 38%

H-Ahx-L-(Me)V-AFPRV-NH2 [AH283]
Feeding Aphid, % lethality in population after adjustment for baseline ([2]; 10^−4 M): 34% | Feeding Aphid, % lethality in population after adjustment for baseline ([2]; 10^−5 M): 26% | Feeding Aphid, % lethality in population after adjustment for baseline ([2]; 10^−5 M, @72 h): 12 (51% | Feeding Aphid, % lethality in population after adjustment for baseline ([2]; 10^−6 M): 27% | Feeding Aphid, % lethality in population after adjustment for baseline ([2]; 10^−7 M): 20% | M. persicae (% Lethality) [3]: 40% | Spray Aphid, % lethality in population after adjustment for baseline ([4]; 10^−4 M): 30% | Spray Aphid, % lethality in population after adjustment for baseline ([4]; 10^−5 M): 20% | Feeding D. suzukii, % lethality in population after adjustment for baseline [5]: 43% | D. suzukii (Mean% Lethality ± SD) ([5]; Peptide screening, Table 5, blank control 20.33): 42.63% | D. suzukii (Sig Diff Grp) ([5]; Peptide screening, Table 5, difference in survival): A

H-LY-(Me)A-FARV-NH2 (H-LY[NMeA]FARV-NH2; SMILES CC(C)C[C@H](N)C(=O)N[C@@H](Cc1ccc(O)cc1)C(=O)N(C)[C@@H](C)C(=O)N[C@@H](Cc1ccccc1)C(=O)N[C@@H](C)C(=O)N[C@@H](CCCNC(=N)N)C(=O)N[C@H](C(N)=O)C(C)C) [AH382]
Feeding Aphid, % lethality in population after adjustment for baseline ([2]; 10^−5 M): 12% | LD50 ([1]; 72 hours treatment): 10^−6 M | % Lethality ± SEM [1]: 90 + 4% | Spray Aphid, % lethality in population after adjustment for baseline ([4]; 10^−4 M): 49% | Spray Aphid, % lethality in population after adjustment for baseline ([4]; 10^−5 M): 10% | Feeding D. suzukii, % lethality in population after adjustment for baseline [5]: 43%

H-LY-Aib-FARV-NH2 (H-LY[Aib]FARV-NH2; SMILES CC(C)C[C@H](N)C(=O)N[C@@H](Cc1ccc(O)cc1)C(=O)NC(C)(C)C(=O)N[C@@H](Cc1ccccc1)C(=O)N[C@@H](C)C(=O)N[C@@H](CCCNC(=N)N)C(=O)N[C@H](C(N)=O)C(C)C) [AH387]
Feeding Aphid, % lethality in population after adjustment for baseline ([2]; 10^−5 M): 14% | Feeding Aphid, % lethality in population after adjustment for baseline ([2]; 10^−5 M, 60 h): 6 (35% | mean lethality [3]: ~60% | lethality observed in one sample of 30 insects [3]: 90% | Spray Aphid, % lethality in population after adjustment for baseline ([4]; 10^−5 M): 12% | Feeding D. suzukii, % lethality in population after adjustment for baseline [5]: 62%

H-LYAFAR-(Me)V-NH2 (H-LYAFAR[NMeV]-NH2; SMILES CC(C)C[C@H](N)C(=O)N[C@@H](Cc1ccc(O)cc1)C(=O)N[C@@H](C)C(=O)N[C@@H](Cc1ccccc1)C(=O)N[C@@H](C)C(=O)N[C@@H](CCCNC(=N)N)C(=O)N(C)[C@H](C(N)=O)C(C)C) [AH380]
Feeding Aphid, % lethality in population after adjustment for baseline ([2]; 10^−5 M): 12% | Spray Aphid, % lethality in population after adjustment for baseline ([4]; 10^−5 M): 33% | Feeding D. suzukii, % lethality in population after adjustment for baseline [5]: 45%

PEG-Ahx-LV-(Me)A-FPR-(Me)V-NH2 [PEGAH270, a pegylated form of peptide AH270]
% Lethality ± SEM [1]: 77 ± 4% | mean lethality [3]: 40% | lethality observed in one sample of 30 insects [3]: 90% | Liquid post exposure (weight), Mean ([6]; Table 11, group mean, n=10): 0.8814 g | liquid consumed per day post exposure, Mean ([6]; Table 11, group mean, n=10): 0.2211 g | Liquid post exposure (weight) [6, 7]: 1.5744 g and 0.7150 g and 0.4326 g and 0.2731 g and 1.1763 g and 1.8061 g and 0.5676 g and 1.5696 g and 0.6889 g and 0.0102 g | days alive [6, 7]: 4 days (9×) and 0 (approx 1 hr) days | liquid consumed per day post exposure [6, 7]: 0.3936 g and 0.1788 g and 0.1082 g and 0.0683 g and 0.2941 g and 0.4515 g and 0.1419 g and 0.3924 g and 0.1722 g and 0.0102 g | safety towards B. terrestris in the bumblebee oral toxicity assay ([6]; in vivo, po): safe

Palmitoyl-LYAFPRV-NH2 (SMILES CCCCCCCCCCCCCCCC(=O)N[C@@H](CC(C)C)C(=O)N[C@@H](Cc1ccc(O)cc1)C(=O)N[C@@H](C)C(=O)N[C@@H](Cc1ccccc1)C(=O)N1CCC[C@H]1C(=O)N[C@@H](CCCNC(=N)N)C(=O)N[C@H](C(N)=O)C(C)C) [AH62]
M. persicae (% Lethality) [3]: 29%
